According to US10259777B2, “(E)-3-(3,4-dihydroxyphenyl)-N-(prop-2-yn-1-yl)acrylamide for treatment of neurodegenerative diseases” (THE UNIVERSITY OF HONG KONG, priority 2015, dated 2019):

Key:
Nrf2 = Nrf2 translocation into cell nuclei, Western blot and immunostaining; assay type: cell-based, rat
Experimental: Direct modification of Keap1 caused the dissociation of Nrf2-Keap1 complex. Based on Western blot analysis of the nuclear proteins and immunostaining of intracellular Nrf2, PACA induced the translocation of Nrf2 into the cell nuclei in a concentration-dependent manner. (A) Western blot analysis of cytosolic and nuclear Nrf2. Following PACA treatment, the cytosolic and nuclear proteins were isolated and analyzed by Western blotting for Nrf2 expression. GAPDH and lamin b were analyzed as the control of protein loading. (B) Immunostaining of the intracellular Nrf2. Following PACA treatment, the cells were probed with Nrf2 antibody, and subsequently visualized with […] secondary antibody. […] The images were captured under a fluorescence microscope. […]
Direct modification of Keap1 caused the dissociation of Nrf2-Keap1 complex. […] For Western blot analysis, the cellular proteins were separated into the cytosolic and nuclear fractions, and analyzed by Western blotting with Nrf2 antibodies. GAPDH was used as the control of protein loading, whereas Lamin B was detected as the nuclear biomarker. […] For immunostaining of the intracellular Nrf2, on the other hand, PC12 cells were sequentially probed with rabbit anti-Nrf2 antibody and detected by Alexa Fluor 594-conjugated goat anti-rabbit IgG antibodies PACA. The images were captured under a Zeiss fluorescence microscope.

PC12 cells = test: Mitochondrial membrane integrity against 6-OHDA, JC-1 probe; assay type: cell-based, rat; settings: 6-OHDA with PACA 5, 10, 20 and 50 μM
Experimental: PC12 cells were treated with 6-OHDA alone or in combination with PACA for 6 hours and subsequently stained with JC-1. The images were captured under a fluorescence microscope.
To investigate the neuroprotective mechanisms of PACA, PC12 cells were treated with 6-OHDA alone or in combination with PACA at the concentrations of 5, 10, 20 and 50 μM. At the end of treatment, the protection of PACA on the mitochondrial membrane integrity was examined by using a cell permeable fluorescent probe 5,5′,6,6′-tetrachloro-1,1′,3,3′-tetraethyl-benzimidazol-carbocyanine iodide (JC-1). 6-OHDA deadly disrupted the mitochondrial membrane integrity as indicated by the leakage of JC-1 into the cytosol.

[1] = Pharmacokinetic analysis of PACA after oral administration, plasma and brain, LC-MS/MS MRM; assay type: in vivo, Sprague Dawley rats
Experimental: (A) HPLC-MS/MS detection of PACA. (B) Determination of PACA in mouse plasma. (C) Determination of PACA in mouse brain tissues. PACA (30 mg/kg) was orally administered into mice. Blood samples and brain tissues were collected after different times (0, 0.5, 1, 2, 3, 6, 9, 12 or 24 h). PACA was determined by liquid chromatography-mass spectrometric multiple reaction monitoring-based strategy.
Nine male Sprague Dawley rats with a body weight of 240-280 g were purchased from Laboratory Animal Unit, HKU. The animals were housed in a qualified facility run on a 12-hour light and dark cycle. The animals were allowed unrestricted access to food and water. The protocol for the animal studies was approved by Li Ka Shing Faculty of Medicine, University of Hong Kong. The rats were administered with PACA (30 mg/kg) in 50% propanediol in saline by oral gavage whereas the control animal received vehicle only. The rats were anesthetized by isoflurane at the time points of 0, 0.5, 1, 2, 3, 6, 9, 12 or 24 h. Blood samples were collected by cardiac puncture using pre-heparinized syringes and immediately transferred into the tubes containing acetonitrile for preventing esterase metabolism. Blood samples were centrifuged at 5700 rpm for 10 minutes at 4° C. to recover plasma. Brain tissues were excised after the removal of blood vessels, blotted dry with clean paper towels, and weighed. All samples were stored at −80° C. before use. HPLC separation was performed on a Phenomenex Synergi hydro-RP C18 reversed phase column (150 mm×4.6 mm, 4 m) (Torrance, Calif., USA) under the control of Agilent HLPC 1100 system (Santa Clara, Calif., USA). Gradient was set using mobile phase: A, water with 0.05% (v/v) formic acid, B, acetonitrile with 0.05% (v/v) formic acid as follows: 0-2.5 min, 40-50% B; 2.5-5.5 min, 50-80% B; 5.5-11.5 min, 80% B; 11.5-12 min, 80-40% B, 12-15 min, 40% B. Flow rate was constant at 0.7 mL/min. The column temperature was maintained at 30° C. Sample volume for injection was 20 μL. […] Multiple-reaction monitoring (MRM) detection was used for the quantitation of all analytes.

[2] = system: mouse model of Parkinson's disease; test: MPTP-induced motor dysfunctions, rotarod and pole test; assay type: in vivo, mice; settings: PACA 15 mg/kg p.o. and MPTP 25 mg/kg i.p. daily for seven days, rotarod and pole test at day-8
Experimental: FIG. 11. In vivo Effect of PACA on MPTP-induced motor dysfunctions in mice. (A) Study design. (B) Rotarod test. Mice were placed on horizontal drums (30 mm in diameter), rotating at a progressively increasing speed, from 4 to 32 rpm over a 5-min period. The time that each animal stayed on the rod before falling was measured. (C) Pole test. Mice were placed with facing head-up on the top of the 50 cm long metal rod (1 cm diameter). Total time for each animal to reach the base of the pole was recorded. Each mouse was tested for three times. The data were presented as Mean±SEM and analyzed by one-way ANOVA with post-hoc Dunnett test. *p<0.05; **, p<0.01.
The in vivo neuroprotective effect of PACA was evaluated in a mouse model of Parkinson's disease. Nineteen mice were randomly divided into three groups: control (n=5), receiving vehicle administrations; MPTP (n=7), receiving i.p. injection of MPTP (25 mg/kg) every afternoon for seven days; MPTP+PACA (n=7), receiving p.o administration of PACA (15 mg/kg) every morning and i.p. injection of MPTP (25 mg/kg) every afternoon for seven days. At day-8, the motor functions of mice were assessed by rotarod performance test and pole test.

C#CCNC(=O)/C=C/c1ccc(O)c(O)c1 [PACA, (E)-3-(3,4-dihydroxyphenyl)-N-(prop-2-yn-1-yl)acrylamide]
levels of nuclear Nrf2 (Nrf2; PACA at different concentrations, Western blot of nuclear fraction): significantly increased the levels of nuclear Nrf2 in a concentration-dependent manner | intracellular Nrf2 localization by immunostaining (Nrf2; PC12 cells, anti-Nrf2 immunostaining): promoted the accumulation of Nrf2 in the cell nucleus | mitochondrial membrane integrity against 6-OHDA (PC12 cells): maintained the mitochondrial membrane integrity in a concentration-dependent manner | bioavailability in plasma and brain tissues ([1]; after oral administration): rapidly bioavailable in plasma and brain tissues | time to peak concentration in blood ([1]; oral administration, 30 mg/kg): ≤ 60 min | time to peak concentration in brain tissues ([1]; oral administration, 30 mg/kg): ≤ 60 min | protection against MPTP-induced motor dysfunctions [2]: effectively protected animals against MPTP-induced motor dysfunctions
